In publication PMC6002448, “Evaluation of the effect of the new methoxy-stilbenes on expression of receptors and enzymes involved in estrogen synthesis in cancer breast cells” (Molecular and Cellular Biochemistry, 2017):

Target: T1, CYP19 (aromatase) (Homo sapiens, UniProt P11511)
T1 construct: gene CYP19A1; human recombinant CYP19
T1 sequence (P11511 1-503): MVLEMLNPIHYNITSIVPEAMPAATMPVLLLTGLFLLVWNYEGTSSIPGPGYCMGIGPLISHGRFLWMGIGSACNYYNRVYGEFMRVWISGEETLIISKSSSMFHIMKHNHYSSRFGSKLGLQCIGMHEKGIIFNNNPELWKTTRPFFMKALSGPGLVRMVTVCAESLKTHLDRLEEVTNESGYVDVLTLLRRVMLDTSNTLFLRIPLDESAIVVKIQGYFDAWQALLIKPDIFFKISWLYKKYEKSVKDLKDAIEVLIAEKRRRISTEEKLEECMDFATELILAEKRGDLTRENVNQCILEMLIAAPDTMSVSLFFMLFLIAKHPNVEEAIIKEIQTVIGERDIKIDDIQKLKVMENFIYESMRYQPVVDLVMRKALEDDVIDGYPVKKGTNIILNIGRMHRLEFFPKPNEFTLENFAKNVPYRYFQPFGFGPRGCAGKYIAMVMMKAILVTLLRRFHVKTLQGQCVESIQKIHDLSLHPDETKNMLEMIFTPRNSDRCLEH
Experiment: fluorometric CYP19/MFC inhibitor screening kit (recombinant enzyme)
Format: biochemical

IC50: ~85 µM
SMILES: COc1ccccc1/C=C/c1ccc(OC)c(OC)c1 [3MS, 3,4,2′-trimethoxy-trans-stilbene]
